Measured values from patent publication US8252793B2, “Bradykinin receptor agonists and uses thereof to treat ocular hypertension and glaucoma” (Alcon Research, Ltd., priority 2010, dated 2012).
Where two headings read alike, the source gives them in different places.

Legend:
[1] = molecular target: T1, recombinant human bradykinin B2 receptor (Homo sapiens, UniProt P30411); experiment: [3H]-BK competition radioligand binding to human cloned B2 receptor (CHO cell membranes)
T1 construct: expressed in transfected cells; host or cells: Chinese hamster ovary (CHO) cells, membrane homogenates
T1 sequence (P30411 1-391): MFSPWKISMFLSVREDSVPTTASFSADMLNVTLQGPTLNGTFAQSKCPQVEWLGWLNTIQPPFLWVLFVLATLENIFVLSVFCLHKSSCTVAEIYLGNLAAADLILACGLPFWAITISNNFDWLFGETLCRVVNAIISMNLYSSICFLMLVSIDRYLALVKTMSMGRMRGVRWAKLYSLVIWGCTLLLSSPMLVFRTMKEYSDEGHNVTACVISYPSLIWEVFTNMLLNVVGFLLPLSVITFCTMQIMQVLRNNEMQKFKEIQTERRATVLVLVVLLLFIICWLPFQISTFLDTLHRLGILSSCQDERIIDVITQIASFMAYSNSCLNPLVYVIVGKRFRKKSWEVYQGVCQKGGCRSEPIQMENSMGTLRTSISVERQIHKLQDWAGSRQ
Method: Chinese hamster ovary (CHO) cell membrane homogenates (2.5 μg protein) expressing the recombinant human bradykinin B2 receptor were incubated for 60 min at 23° C. with 0.2 nM [^3H]-bradykinin (95.5 Ci/mmole, PerkinElmer) in the absence or presence of the test compound in a buffer containing 50 mM Tris/HCl (pH 7.4), 0.2 g/L 1-10-phenanthroline and 0.1% BSA. All reagent and test compound additions to the assay plates were made using Biomek 3000 robotic workstations (Beckman Instruments, Fullerton, Calif.). Nonspecific binding was determined in the presence of 1 μM unlabeled bradykinin. Following the incubation, the assay was terminated by rapid filtration under vacuum through glass fiber filters (GF/C, PerkinElmer) presoaked with 0.3% polyethyleneimine and rinsed several times with an ice-cold 50 mM Tris-HCl buffer using a 96-sample cell harvester (Tomtec). The filters were air-dried and the radioactivity counted in a beta-scintillation counter (Topcount, PerkinElmer) using a scintillation cocktail (Microscint 20, PerkinElmer) (Sharif and Whiting, Neurochem. Int. 18: 89-96, 1991). Competitive binding inhibition curves were generated using a 7-point concentration—response of test compound in duplicate. Bradykinin peptide was also tested as an internal control in the assay. The data were analyzed using nonlinear, iterative curve-fitting to obtain the potency and intrinsic activities of the test agents as previously described (Sharif et al. J. Pharmacol. Exp. Ther. 286: 1094-1102, 1998; Sharif et al. Invest Ophthalmol. Vis. Sci. 39:2562-2571, 1998; Kelly et al. J. Pharmacol. Exp. Ther. 304: 238-245, 2003). Determined IC50 values were converted to Ki values using the standard Cheng-Prusoff equation.

[2] = molecular target: T2, BK receptors in human ciliary muscle cells (h-CM) (Homo sapiens, UniProt P30411); experiment: Functional assay measuring [Ca2+]i mobilization (FLIPR) in h-CM cells; type: cell-based; conditions: class symbols (in μM), read-out: CaM (EC50)
T2 construct: h-CM cells expressing BK receptors were seeded; endogenous in cells; host or cells: human ciliary muscle (h-CM) cells
T2 sequence (P30411 1-391): T1 sequence (P30411 1-391)
Method: On the day of the experiment, media was removed, cells were rinsed and 50 μL of serum-free media added. One vial of FLIPR Calcium Assay Kit dye was reconstituted in 50 mL of a FLIPR buffer consisting of Hank's Balanced Salt Solution (HBSS), 20 mM HEPES, and 2.5 mM probenecid, pH 7.4. Cells were loaded with the calcium-sensitive dye by addition of an equal volume (50 μL) to each well of the 96-well plate and incubated with dye for 1 h at 23° C. […] After this time, the test compound plate and cell plate were placed in a Fluorescence Imaging Plate Reader (FLIPR-Tetra®) instrument (Molecular Devices/MDSPharma, Sunnyvale, Calif.). At the beginning of an experimental run, a signal test was performed to check the basal fluorescence signal from the dye-loaded cells and the uniformity of the signal across the plate. […] An aliquot (25 μL) of the test compound was added to the existing 100 μL dye-loaded cells at a dispensing speed of 50 μL/sec. Intracellular calcium mobilization was measured by monitoring real-time changes in cellular fluorescence upon test compound addition. Fluorescence data were collected in real-time at 1.0 sec intervals for the first 60 seconds and at 6.0 second intervals for an additional 120 seconds. Baseline fluorescence readings were normalized across the plate and background-corrected from negative control wells. […] EC50 values were determined by 4-parameter nonlinear curve fitting of the concentration-response curve. Calibration of the instrument was performed using manufacturer's standard procedures.

[3] = test system: primary human ciliary muscle cells (h-CM); experiment: Total prostaglandin (PG) release from primary h-CM cells (EIA); type: cell-based; conditions: 1 hour at 37° C., class symbols (in μM)
Method: BK agonist compounds of Formula 1 were evaluated for the ability to induce prostaglandin (PG) release from primary human ciliary muscle cells (h-CM). Briefly, h-CM cells were grown to confluence in FNC-coated 24-well culture plates and serum-starved (0.8% FBS) for 24 hours prior to the experiment. Cells were stimulated with a 9-pt concentration-response (0.1 nM-10 μM) of bradykinin or BK agonist for 1 hour at 37° C. with subsequent sample recovery and processing for total PG measurement. Total PG measurement was determined using a total Prostaglandin Screening EIA kit (cat#514012) purchased from Cayman Chemical (Ann Arbor, Mich.). The assay was conducted according to the package insert from the manufacturer.

[4] = 0.2 nM [3H]-bradykinin, CHO membranes, 60 min 23° C., mean ± SEM or single value, Ki from IC50 by Cheng-Prusoff, read-out: [3H]-BK Binding to Human Cloned B2 Receptor (Ki)
[5] = same assay as E1, given as class symbols (in μM), read-out: [3H]-BK Binding to Human Cloned B2 Receptor (Ki, nM), class symbols

| Molecule | Ki [1, 4] [µM] | EC50 [2] [µM] | other results |
| --- | --- | --- | --- |
| 3-(4-acetylpiperazin-1-yl)-N-(2-((2,4-dichloro-3-(((2-methoxy-1-(pyridin-2-ylmethyl)-1H-benzo[d]imidazol-4-yl)oxy)methyl)phenyl)(methyl)amino)-2-oxoethyl)propanamide [Compound 16] | 0.985 ± 0.473 | 0.1 to 1 | Ki [1, 5]: 0.1 to 1 µM |
| CCc1nc2c(OCc3c(Cl)ccc(N(C)C(=O)CNC(=O)CNC4CCN(C(=O)NC)CC4)c3Cl)cccn2c1C(O)c1ccccn1 (stereo not shown) [Compound 23] | 1.73 ± 0.428 | > 1 |  |
| 5-(3-((2-((2,4-dichloro-3-(((2-methyl-4-((pyridin-2-ylmethyl)amino)quinolin-8-yl)oxy)methyl)phenyl)(methyl)amino)-2-oxoethyl)amino)-3-oxopropyl)-N-methylpicolinamide [Compound 49] |  | 0.1 to 1 | EC50 [3]: 0.1 to 1 µM |
| COc1nc2c(OCc3c(Cl)ccc(N(C)C(=O)CNC(=O)CN4CCOCC4)c3Cl)cccc2n1Cc1ccccn1 [Compound 14, N-(2,4-dichloro-3-(((2-methoxy-1-(pyridin-2-ylmethyl)-1H-benzo[d]imidazol-4-yl)oxy)methyl)phenyl)-N-methyl-2-(2-morpholinoacetamido)acetamide] | 0.197 | 0.1 to 1 |  |
| NCCCC[C@H](N)C(=O)N[C@@H](CCCN=C(N)N)C(=O)N1CCC[C@H]1C(=O)N1CCC[C@H]1C(=O)NCC(=O)N[C@@H](Cc1ccccc1)C(=O)N[C@@H](CO)C(=O)N1CCC[C@H]1C(=O)N[C@@H](Cc1ccccc1)C(=O)N[C@@H](CCCN=C(N)N)C(=O)O [Lys-BK, reference compound] |  |  | Ki [1, 5]: < 0.1 µM |
| COc1nc2c(OCc3c(Cl)ccc(N(C)C(=O)CNC(=O)CCc4ccc(NS(C)(=O)=O)nc4)c3Cl)cccc2n1Cc1ccccn1 [Compound 5, N-(2-((2,4-dichloro-3-(((2-methoxy-1-(pyridin-2-ylmethyl)-1H-benzo[d]imidazol-4-yl)oxy)methyl)phenyl)(methyl)amino)-2-oxoethyl)-3-(6-(methylsulfonamido)pyridin-3-yl)propanamide] | 0.071 ± 0.03 | 0.1 to 1 |  |
| 4-((2-((2-((3-(((2-methoxy-1-(pyridin-2-ylmethyl)-1H-benzo[d]imidazol-4-yl)oxy)methyl)-2,4-dimethylphenyl)(methyl)amino)-2-oxoethyl)amino)-2-oxoethyl)amino)-N-methylpiperidine-1-carboxamide [Compound 21] | 0.881 ± 0.263 | 0.1 to 1 | Ki [1, 5]: 0.1 to 1 µM |
| COC(=O)N1CCN(CCC(=O)NCC(=O)N(C)c2ccc(Cl)c(COc3cccc4c3nc(OC)n4Cc3ccccn3)c2Cl)CC1 [Compound 18] | 0.239 ± 0.15 | 0.1 to 1 |  |
| N=C(N)NCCC[C@H](NC(=O)[C@H](Cc1ccccc1)NC(=O)[C@@H]1CCCN1C(=O)[C@H](CO)NC(=O)[C@H](Cc1ccccc1)NC(=O)CNC(=O)[C@@H]1C[C@@H](O)CN1C(=O)[C@@H]1CCCN1C(=O)[C@@H](N)CCCNC(=N)N)C(=O)O [Hyp^3-BK, reference compound] |  |  | Ki [1]: 0.0019 ± 0.0011 µM; Ki ([1]; [3H]-BK Binding to Human Cloned B2 Receptor (Ki, nM), class symbols, same assay as E1, given as class symbols (in μM)): < 0.1 µM |
| COC(=O)Nc1ccc(CCC(=O)NCC(=O)N(C)c2ccc(C)c(COc3cccc4c3nc(OC)n4Cc3ccccn3)c2C)cn1 [Compound 6] | 0.01 ± 0.002 | < 0.1 | Ki [1, 5]: < 0.1 µM |
| COc1nc2c(OCc3c(Cl)ccc(N(C)C(=O)CNC(=O)CN4CCC(NC(C)=O)CC4)c3Cl)cccc2n1Cc1ccccn1 [Compound 15, 2-(2-(4-acetamidopiperidin-1-yl)acetamido)-N-(2,4-dichloro-3-(((2-methoxy-1-(pyridin-2-ylmethyl)-1H-benzo[d]imidazol-4-yl)oxy)methyl)phenyl)-N-methylacetamide] | 0.467 | 0.1 to 1 |  |
| CCc1nc2c(OCc3c(Cl)ccc(N(C)C(=O)CNC(=O)CCN4CCN(C(=O)NC)CC4)c3Cl)cccn2c1C(O)c1ccccn1 (stereo not shown) [Compound 26] | 2.14 ± 0.223 | 0.1 to 1 |  |
| COc1nc2c(OCc3c(Cl)ccc(N(C)C(=O)CNC(=O)CCN4CCN(C(=O)N(C)C)CC4)c3Cl)cccc2n1Cc1ccccn1 [Compound 17] | 0.274 ± 0.069 | 0.1 to 1 |  |
| CSCC[C@H](N)C(=O)N[C@@H](CCCCN)C(=O)N[C@@H](CCCNC(=N)N)C(=O)N1CCC[C@H]1C(=O)N1CCC[C@H]1C(=O)NCC(=O)N[C@@H](Cc1ccccc1)C(=O)N[C@@H](CO)C(=O)N1CCC[C@H]1C(=O)N[C@@H](Cc1ccccc1)C(=O)N[C@@H](CCCNC(=N)N)C(=O)O [Met-Lys-BK, reference compound] |  |  | Ki [1, 5]: < 0.1 µM |

More lines, main results first:

| Ki [1, 4] [µM] | EC50 [2] [µM] | Molecule | other results |
| --- | --- | --- | --- |
| 0.015 | 0.1 to 1 | CC(=O)Nc1ccc(CC(=O)NCC(=O)N(C)c2ccc(Cl)c(COc3cccc4c(OCc5ccccn5)cc(C)nc34)c2Cl)cc1 [Compound 50] |  |
| 2.14 | 0.1 to 1 | CCc1nc2c(OCc3c(Cl)ccc(N(C)C(=O)CNC(=O)CCN4CCN(C(=O)NC)CC4)c3Cl)cccn2c1C(O)c1ccccn1 (stereo not shown) [Compound 59] |  |
| 0.0157 | 0.1 to 1 | CNC(=O)C1CCN(CC(=O)NCC(=O)N(C)c2ccc(C)c(COc3cccc4c3nc(OC)n4Cc3ccccn3)c2C)CC1 [Compound 52] |  |
| 0.455 | 0.1 to 1 | COc1nc2c(OCc3c(Cl)ccc(N(C)C(=O)CNC(=O)CCN4CCOCC4)c3Cl)cccc2n1Cc1ccccn1 [Compound 54] |  |
| 3.15 | > 1 | COc1nc2c(OCc3c(Cl)ccc(N(C)C(=O)CNC(=O)CCN4CCNCC4)c3Cl)cccc2n1Cc1ccccn1 [Compound 58] |  |
| 0.701 | 0.1 to 1 | COc1nc2c(OCc3c(C)ccc(N(C)C(=O)CNC(=O)CN4CCC(NC(C)=O)CC4)c3C)cccc2n1Cc1ccccn1 [Compound 51] |  |
| 0.34 | 0.1 to 1 | CNC(=O)CN1CCN(CC(=O)NCC(=O)N(C)c2ccc(Cl)c(COc3cccc4c3nc(OC)n4Cc3ccccn3)c2Cl)CC1 [Compound 53] |  |
|  | 0.1 to 1 | CCc1nc2c(OCc3c(C)ccc(N(C)C(=O)CNC(=O)CCN4CCN(C(=O)NC)CC4)c3C)cccc2n1Cc1ccccn1 [Compound 60] |  |
| 0.984 | 0.1 to 1 | COc1nc2c(OCc3c(Cl)ccc(N(C)C(=O)CNC(=O)CCCN4CCN(C(C)=O)CC4)c3Cl)cccc2n1Cc1ccccn1 [Compound 55] |  |
